Consider nine molecules from article PMC11062507.

Data set [1] deals with CArah1-1 (DNA, aptamer, circular (5' and 3' ends ligated)) ATCCGATCGAGAGGATCCGGAAACATGCGAATTAATGAGGCCCCAAGATAGCTAAGAGAT
Description: MMC-GO-based binding assay, SYBR Gold fluorescence. To be noted: 1x binding buffer (composition not stated); specificity test, concentration not given.

For data set [2], the target named is T1, Ara h1 (peanut allergen) (peanut, UniProt P43238 85-626).
T1 sequence: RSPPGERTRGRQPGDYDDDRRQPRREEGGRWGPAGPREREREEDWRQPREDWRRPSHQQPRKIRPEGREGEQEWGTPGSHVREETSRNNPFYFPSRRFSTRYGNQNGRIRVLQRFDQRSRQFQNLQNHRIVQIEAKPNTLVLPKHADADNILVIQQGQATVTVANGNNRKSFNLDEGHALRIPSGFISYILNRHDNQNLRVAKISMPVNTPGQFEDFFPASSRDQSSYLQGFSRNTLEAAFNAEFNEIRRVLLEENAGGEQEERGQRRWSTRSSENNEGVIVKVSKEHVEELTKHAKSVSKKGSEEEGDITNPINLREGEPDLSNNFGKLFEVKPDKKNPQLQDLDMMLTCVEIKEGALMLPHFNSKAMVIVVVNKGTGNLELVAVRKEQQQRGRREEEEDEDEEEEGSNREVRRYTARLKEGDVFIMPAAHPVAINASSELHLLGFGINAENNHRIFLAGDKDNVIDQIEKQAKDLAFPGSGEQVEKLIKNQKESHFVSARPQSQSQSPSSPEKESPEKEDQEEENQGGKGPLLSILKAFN
Description: MMC-GO-based fluorescence binding assay; Kd only in figure; 1x binding buffer (composition not in material); aptamer heated 95 C 5 min, ice 15 min, incubated 60 min with target, then MMC-GO 20 min; MST at 25 C. To be noted: protein: native; tags: RED-NHS dye label in MST; label: SYBR Gold staining; circular ssDNA.

Data set [3] has as its target T1, Ara h1 (peanut allergen). Description: MMC-GO-based fluorescence binding assay; 1x binding buffer (composition not in material); aptamer heated 95 C 5 min, ice 15 min, incubated 60 min with target, then MMC-GO 20 min; MST at 25 C. The conditions noted are these: protein: native; tags: RED-NHS dye label in MST; label: SYBR Gold staining in MMC-GO assay; circular ssDNA.

Data set [4] has as its target T1, Ara h1 (peanut allergen). Description: MST; labeled Ara h1 fixed, aptamer titrated, 25 C; 1x binding buffer (composition not in material); aptamer heated 95 C 5 min, ice 15 min, incubated 60 min with target, then MMC-GO 20 min; MST at 25 C. To be noted: protein: native; tags: RED-NHS dye label in MST; label: SYBR Gold staining in MMC-GO assay; circular ssDNA.

As to `N[C@@H](Cc1c[nH]c2ccccc12)C(=O)O`, in data set [1], the binding entry is “no”.

Regarding `Cc1cc2nc3c(=O)[nH]c(=O)nc-3n(C[C@H](O)[C@H](O)[C@H](O)CO)c2cc1C`, the binding result in data set [1] was “no”.

As to `Nc1ncnc2c1ncn2[C@@H]1O[C@H](COP(=O)(O)OP(=O)(O)OP(=O)(O)O)[C@@H](O)[C@H]1O`, in data set [1], the binding result was “no”.

Take `O=C1O[C@H]([C@@H](O)CO)C(O)=C1O`: the binding entry in data set [1] was “no”.

As for `OC[C@H]1OC(O)[C@H](O)[C@@H](O)[C@@H]1O` (stereo partly shown), the binding entry in data set [1] is listed as “no”.

`N[C@@H](Cc1ccccc1)C(=O)O`: the binding entry in data set [1] is recorded as “no”.

B1: CArah1-4 (structured_DNA)
DNA: ATCCGATCGATCAACAAACTTCGTGGCTCACCCAGACATTCACTCATGCGGCTAAGAGAT
modifications: circular (5' and 3' ends ligated)
For B1, in the data set with Ara h1 (peanut allergen) [2], the binding result is reported as “binds”.

B2: CArah1-3 (structured_DNA)
DNA: ATCCGATCGATTCTACGGTTTTTCGCTAACGTTCACTGCACTGTATCTGGGCTAAGAGAT
modifications: circular (5' and 3' ends ligated)
Turning to B2, in the data set with Ara h1 (peanut allergen) [2], the binding result is recorded as “binds”.

B3: CArah1-1 (structured_DNA)
DNA: ATCCGATCGAGAGGATCCGGAAACATGCGAATTAATGAGGCCCCAAGATAGCTAAGAGAT
modifications: circular (5' and 3' ends ligated)
For B3, the results for the Kd with Ara h1 (peanut allergen) [3] and in the data set with Ara h1 (peanut allergen) [4] were 981 nM and 201 nM, respectively.
